Source: patent US20050209157A1, “Short bioactive peptides and methods for their use” (priority 2001, published 2005)
In brackets after ≈: the same amount, converted by molar mass. Several values for one entry are separate records, joined by “and”; a condition that tells them apart may be missing. Equal entries are not always repeated. Where two headings read alike, the source gives them in different places. Non-standard residues stand in square brackets, D forms with d. Residues, ends and D or L forms follow the SMILES beside them. No end group written: not given here.

Assays:
[1] = tested on: Candida glabrata ATCC15126; assay: Antimicrobial assays II, NCCLS broth microdilution MIC; format: cell-based; details: Table 13; in µg/mL
S. aureus (MRSA) = format: cell-based, Staphylococcus aureus; details: Table 13, strain SAP0017; in µg/mL
[2] = tested on: Pseudomonas aeruginosa 100609; format: cell-based; details: Table 9; in µg/mL
[3] = tested on: Pseudomonas aeruginosa H187; format: cell-based; details: in µg/mL
E. coli UB1005 = format: cell-based, Escherichia coli; details: Table 12
S. epidermidis C621 = format: cell-based, Staphylococcus epidermidis; details: Table 13; in µg/mL
P. aeruginosa H374 = format: cell-based, Pseudomonas aeruginosa; details: in µg/mL
[4] = tested on: Pseudomonas aeruginosa 105663; format: cell-based; details: Table 9; in µg/mL
S. typhimurium 14028S = format: cell-based, Salmonella typhimurium; details: Table 12
Candida albicans 105 = format: cell-based; details: Table 13; in µg/mL

Compound | MIC C. glabrata ATCC15126 [1] | MIC S. aureus SAP0017 (S. aureus (MRSA)) | MIC P. aeruginosa Tb 100609 [2] | MIC P. aeruginosa H187 ([3]; Table 9) | MIC P. aeruginosa H187 ([3]; Table 12) | MIC E. coli UB1005 (E. coli UB1005) [mg/L] | MIC S. epidermis C621 (S. epidermidis C621) | MIC P. aeruginosa H374 (P. aeruginosa H374; Table 9) | MIC P. aeruginosa H374 (P. aeruginosa H374; Table 12) | MIC P. aeruginosa Tb 105663 [4] | MIC S. typhimurium 14028S (S. typhimurium 14028S) [mg/L] | MIC C. albicans 105 (Candida albicans 105)
FALLKALLKKAL-NH2 [P177 (138)] | 16 | 8 | 32 | 16 | 16 | 8 | 4 | 16 | 16 | 32 | 16 | 16
FALALKALKKLKKALKKAL-NH2 [P27 (12)] | 16 and 32 | 8 and 16 | 8 and 16 | 8 | 8 | 8 | 4 | 8 | 8 | 8 and 16 | 16 | 16 and 32
FAKKLAKKLAKLAL-NH2 [P45 (27)] | 16 | 32 | 32 | 16 | 16 | 4 | 16 | 8 | 8 | 32 | 32 | 16
FAKKLAKKLL-NH2 [P59 (39)] | 16 | 8 | 8 | 8 | 8 | 8 | 8 | 8 | 8 | 8 | 8 | 32
CC(C)C[C@H](NC(=O)[C@H](C)NC(=O)[C@H](CC(C)C)NC(=O)[C@H](C)NC(=O)[C@H](CC(C)C)NC(=O)[C@H](CCCCN)NC(=O)[C@H](C)NC(=O)[C@H](CC(C)C)NC(=O)[C@H](CCCCN)NC(=O)[C@H](CCCCN)NC(=O)[C@H](C)NC(=O)[C@H](CC(C)C)NC(=O)[C@H](CCCCN)NC(=O)[C@H](C)NC(=O)[C@H](CC(C)C)NC(=O)[C@H](CCCCN)NC(=O)[C@H](CCCCN)NC(=O)[C@H](C)NC(=O)[C@@H](N)C(C)C)C(N)=O [P504 (155)] | 64 | 4 | 8 | 8 | 8 | 4 (≈ 2.01 µM) | 4 | 8 | 8 | 16 | 4 (≈ 2.01 µM) | 64
CC(C)C[C@H](NC(=O)[C@H](C)NC(=O)[C@H](CC(C)C)NC(=O)[C@H](CCCCN)NC(=O)[C@H](C)NC(=O)[C@H](CC(C)C)NC(=O)[C@H](CCCCN)NC(=O)[C@H](CCCCN)NC(=O)[C@H](C)NC(=O)[C@H](CC(C)C)NC(=O)[C@H](CCCCN)NC(=O)[C@H](C)NC(=O)[C@H](CC(C)C)NC(=O)[C@H](CCCCN)NC(=O)[C@H](CCCCN)NC(=O)[C@H](C)NC(=O)[C@@H](N)Cc1ccccc1)C(N)=O [P35 (17)] | 16 | 8 | 4 | 8 | 8 | 2 (≈ 1.08 µM) | 4 | 8 | 8 | 4 | 4 (≈ 2.16 µM) | 32
FAKKLAKKLKKLAKKLAKKWKL-OH [P72 (48)] | 64 | 16 | 8 | 8 | 8 | 2 | 4 | 4 | 4 | 8 | 8 | 32
FAKLLAKLAKKVL-NH2 [P124 (86)] | 16 | 8 | 64 | 32 | 32 | 16 | 4 | 16 | 16 | 64 | 16 | 16
KWKLFKKKTKLFKKFAKKLAKKL-NH2 [P73 (49)] | 128 | 16 | 16 | 16 | 16 | 8 | 4 | 8 | 8 | 16 | 16 | 32
CC(C)C[C@H](NC(=O)[C@H](C)NC(=O)[C@H](CCCCN)NC(=O)[C@H](CCCCN)NC(=O)[C@H](CC(C)C)NC(=O)[C@H](C)NC(=O)[C@H](CCCCN)NC(=O)[C@H](CCCCN)NC(=O)[C@H](CC(C)C)NC(=O)[C@@H](CCCCN)NC(=O)[C@@H](CCCCN)NC(=O)[C@H](CC(C)C)NC(=O)[C@H](C)NC(=O)[C@H](CCCCN)NC(=O)[C@H](CCCCN)NC(=O)[C@H](CC(C)C)NC(=O)[C@H](C)NC(=O)[C@H](CCCCN)NC(=O)[C@H](CC(C)C)NC(=O)[C@H](C)NC(=O)[C@H](CC(C)C)NC(=O)[C@H](C)NC(=O)[C@@H](N)Cc1ccccc1)C(=O)O [P37 (19)] (H-FALALKALKKAL[dK][dK]LKKALKKAL-OH; N-terminus assumed) | 32 | 8 | 16 | 8 | 8 | 4 (≈ 1.58 µM) | 4 | 8 | 8 | 16 | 8 (≈ 3.15 µM) | 32
CC(C)C[C@H](NC(=O)[C@H](C)NC(=O)[C@H](CC(C)C)NC(=O)[C@H](CCCCN)NC(=O)[C@H](C)NC(=O)[C@H](CC(C)C)NC(=O)[C@H](CCCCN)NC(=O)[C@H](CCCCN)NC(=O)[C@H](C)NC(=O)[C@H](CC(C)C)NC(=O)[C@H](CCCCN)NC(=O)[C@H](C)NC(=O)[C@H](CC(C)C)NC(=O)[C@H](CCCCN)NC(=O)[C@H](CCCCN)NC(=O)[C@H](C)NC(=O)[C@@H](N)C(C)C)C(N)=O [P50 (32)] | 16 | 4 | 4 | 4 | 4 | 2 (≈ 1.11 µM) | 4 | 4 | 4 | 8 | 4 (≈ 2.21 µM) | 16
GIGKFLKKAKKFGKAFVKILKK-NH2 [P42 (24)] | 64 | 16 | 8 | 8 | 8 | 4 | 2 | 4 | 4 | 8 | 8 | 32
